Reference: US10457707B2, “Substituted urea depsipeptide analogs as activators of the CLPP endopeptidase” (priority 2015, dated 2019)
≈ marks a conversion by molar mass, not a printed value. Like-named read-outs stand apart in the source and are kept apart here.

Tests used:
Format in all cases: cell-based
[1] = tested on: Bacillus subtilis, ATCC 23857; assay: Minimal inhibitory concentration assay (microbroth dilution)
In short: (§1)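 CLSI broth microdilution: two-fold compound dilutions from 200 μM final, ~10^5 cfu/mL inoculum, aerobic overnight incubation at 37 °C. MIC read visually as lowest concentration preventing growth; S. aureus USA 300 compared with its ClpP-inactivated counterpart to check ClpP dependence.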

[2] = tested on: Enterococcus faecalis, ATCC 33186; assay: as above
In short: as §1

[3] = tested on: Staphylococcus aureus, ATCC 29213; assay: as above; conditions: ATCC29213, read-out: Minimal Inhibitory Concentrations S. aureus ATCC 29213
In short: as §1

[4] = tested on: Staphylococcus aureus, NRS70; assay: as above
In short: as §1

[5] = tested on: Streptococcus pneumoniae, DAW27; assay: as above; conditions: DAW27, read-out: Minimal Inhibitory Concentrations S. pneumoniae DAW27
In short: as §1

[6] = tested on: Staphylococcus aureus, USA 300 wherein ClpP is inactivated; assay: Minimal inhibitory concentration assay
In short: as §1

[7] = tested on: Staphylococcus aureus, USA 300; assay: Minimal inhibitory concentration assay; conditions: USA300, read-out: Minimal Inhibitory Concentrations S. aureus USA 300
In short: as §1

E. coli K12ΔtolC = assay: Minimal inhibitory concentration assay (microbroth dilution)
[8] = tested on: Vero (kidney epithelial cells; ATCC CCL-81); assay: Cytotoxicity assay (CellTiter-Glo cell viability, 72 hours); conditions: Vero cells, 72 hours, growth inhibition; read-out: Cytotoxicity IC50
In short: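 Vero cells, 5000/well, grown overnight at 37° C, 5% CO2 in DMEM with 10% FBS, then exposed to serial compound dilutions or DMSO for 72 hours. Viability read by CellTiter-Glo luminescence. IC50 from duplicate wells, reported as range over two independent experiments.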

[9] = tested on: Streptococcus pyogenes, ATCC 700294; assay: Minimal inhibitory concentration assay (microbroth dilution)
In short: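 CLSI broth microdilution: two-fold serial compound dilutions in appropriate broth, inoculated and incubated aerobically overnight at 37° C. MIC read visually as lowest concentration preventing bacterial growth.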

[10] = Bacillus subtilis, ATCC23857; read-out: Minimal Inhibitory Concentrations B. subtilis ATCC 23857
[11] = Enterococcus faecalis, ATCC33186; read-out: Minimal Inhibitory Concentrations E. faecalis ATCC 33186
[12] = Staphylococcus aureus, NRS70; read-out: Minimal Inhibitory Concentrations S. aureus NRS70
[13] = Bacillus subtilis, ATCC23857, read-out: Minimal Inhibitory Concentrations B. subtilis ATCC 23857
[14] = Enterococcus faecalis, ATCC33186, read-out: Minimal Inhibitory Concentrations E. faecalis ATCC 33186
[15] = Staphylococcus aureus, NRS70, read-out: Minimal Inhibitory Concentrations S. aureus NRS70
[16] = Streptococcus pyogenes, ATCC700294, read-out: Minimal Inhibitory Concentrations S. pyogenes ATCC 700294
[17] = Streptococcus pyogenes, ATCC700294; read-out: Minimal Inhibitory Concentrations S. pyogenes ATCC 700294

## O=C(N[C@H](CO)[C@H](O)c1ccc([N+](=O)[O-])cc1)C(Cl)Cl [Chloroamphenicol, chloramphenicol, reference compound]
[1]; [10]
  MIC: 3.1 µM (≈ 1 µg/mL)
[2]; [11]
  MIC: 0.39 µM (≈ 0.126 µg/mL)
[3]
  MIC: 3.13 µM (≈ 1.01 µg/mL)
[4]; [12]
  MIC: 3.1 µM (≈ 1 µg/mL)
[5]
  MIC: 0.78 µM (≈ 0.252 µg/mL)
[6]
  Minimal Inhibitory Concentrations S. aureus USA 300 ΔClpP: 6.3 µM
[7]
  MIC: 3.1 µM (≈ 1 µg/mL)
E. coli K12ΔtolC
  Minimal Inhibitory Concentrations E. coli K12ΔtolC: 0.78 µM

## C[C@@H]1C[C@H]2C(=O)OC[C@H](NC(=O)[C@H](Cc3ccccc3)NC(=O)Nc3ccccc3)C(=O)N3CCC[C@H]3C(=O)N3CCCC[C@H]3C(=O)N[C@@H](C)C(=O)N2C1 [Compound 1, (S)—N-((2R,6S,8aS,14aS,20S,23aS)-2,6-dimethyl-5,8,14,19,23-pentaoxooctadecahydro-1H,5H,14H,19H-pyrido[2,1-i]dipyrrolo[2,1-c:2′,1′-l][1]oxa[4,7,10,13]tetraazacyclohexadecin-20-yl)-3-phenyl-2-(3-phenylureido)propanamide]
[8]
  IC50: > 100 µM
[1]; [13]
  MIC: 1.56 µM (≈ 1.16 µg/mL)
[2]; [14]
  MIC: 3.13 µM (≈ 2.33 µg/mL)
[3]
  MIC: 6.25 µM (≈ 4.65 µg/mL)
[4]; [15]
  MIC: 6.25 µM (≈ 4.65 µg/mL)
[5]
  MIC: 0.78 µM (≈ 0.58 µg/mL)
[9]; [16]
  MIC: 1.56 µM (≈ 1.16 µg/mL)
E. coli K12ΔtolC
  Minimal Inhibitory Concentrations E. coli K12ΔtolC: 200 µM

## C[C@@H]1C[C@H]2C(=O)OC[C@H](NC(=O)[C@H](Cc3ccccc3)NC(=O)Nc3ccc(OC(F)(F)F)cc3)C(=O)N3CCC[C@H]3C(=O)N3CCCC[C@H]3C(=O)N[C@@H](C)C(=O)N2C1 [Compound 2, (S)—N-((2R,6S,8aS,14aS,20S,23aS)-2,6-dimethyl-5,8,14,19,23-pentaoxooctadecahydro-1H,5H,14H,19H-pyrido[2,1-i]dipyrrolo[2,1-c:2′,1′-l][1]oxa[4,7,10,13]tetraazacyclohexadecin-20-yl)-3-phenyl-2-(3-(4-(trifluoromethoxy)phenyl)ureido)propanamide]
[1]; [10]
  MIC: 0.2 µM (≈ 0.166 µg/mL)
[2]; [11]
  MIC: 0.02 µM (≈ 0.0166 µg/mL)
[4]; S. aureus NRS70; read-out: Minimal Inhibitory Concentrations S. aureus NRS70
  MIC: 0.20 µM (≈ 0.166 µg/mL)
[5]
  MIC: 0.02 µM (≈ 0.0166 µg/mL)
[9]; S. pyogenes ATCC 700294; read-out: Minimal Inhibitory Concentrations S. pyogenes ATCC 700294
  MIC: 0.10 µM (≈ 0.0828 µg/mL)
E. coli K12ΔtolC
  Minimal Inhibitory Concentrations E. coli K12ΔtolC: 12.5 µM

## C[C@@H]1C[C@H]2C(=O)OC[C@H](NC(=O)[C@H](Cc3ccccc3)NC(=O)Nc3ccc(Cl)cc3)C(=O)N3CCC[C@H]3C(=O)N3CCCC[C@H]3C(=O)N[C@@H](C)C(=O)N2C1 [Compound 3, (S)-2-(3-(4-chlorophenyl)ureido)-N-((2R,6S,8aS,14aS,20S,23aS)-2,6-dimethyl-5,8,14,19,23-pentaoxooctadecahydro-1H,5H,14H,19H-pyrido[2,1-i]dipyrrolo[2,1-c:2′,1′-l][1]oxa[4,7,10,13]tetraazacyclohexadecin-20-yl)-3-phenylpropanamide]
[8]
  IC50: 63 ± 5.8 µM
[1]; [13]
  MIC: 0.78 µM (≈ 0.607 µg/mL)
[2]; [14]
  MIC: 0.2 µM (≈ 0.156 µg/mL)
[3]
  MIC: 1.56 µM (≈ 1.21 µg/mL)
[4]; [15]
  MIC: 0.78 µM (≈ 0.607 µg/mL)
[5]
  MIC: 0.2 µM (≈ 0.156 µg/mL)
[9]; [16]
  MIC: 0.39 µM (≈ 0.304 µg/mL)
E. coli K12ΔtolC
  Minimal Inhibitory Concentrations E. coli K12ΔtolC: 25 µM

## CCc1ccc(NC(=O)N[C@@H](Cc2ccccc2)C(=O)N[C@H]2COC(=O)[C@@H]3C[C@@H](C)CN3C(=O)[C@H](C)NC(=O)[C@@H]3CCCCN3C(=O)[C@@H]3CCCN3C2=O)cc1 [Compound 4, (S)—N-((2R,6S,8aS,14aS,20S,23aS)-2,6-dimethyl-5,8,14,19,23-pentaoxooctadecahydro-1H,5H,14H,19H-pyrido[2,1-i]dipyrrolo[2,1-c:2′,1′-l][1]oxa[4,7,10,13]tetraazacyclohexadecin-20-yl)-2-(3-(4-ethylphenyl)ureido)-3-phenylpropanamide]
[1]; [10]
  MIC: 0.2 µM (≈ 0.154 µg/mL)
[2]; [11]
  MIC: 0.1 µM (≈ 0.0772 µg/mL)
[3]
  MIC: 0.78 µM (≈ 0.602 µg/mL)
[4]; [12]
  MIC: 0.39 µM (≈ 0.301 µg/mL)
[5]
  MIC: 0.04 µM (≈ 0.0309 µg/mL)
[9]; [17]
  MIC: 0.2 µM (≈ 0.154 µg/mL)
E. coli K12ΔtolC
  Minimal Inhibitory Concentrations E. coli K12ΔtolC: 25 µM

## C[C@@H]1C[C@H]2C(=O)OC[C@H](NC(=O)[C@H](Cc3ccccc3)NC(=O)Nc3ccc(N(C)C)cc3)C(=O)N3CCC[C@H]3C(=O)N3CCCC[C@H]3C(=O)N[C@@H](C)C(=O)N2C1 [Compound 5, (S)—N-((2R,6S,8aS,14aS,20S,23aS)-2,6-dimethyl-5,8,14,19,23-pentaoxooctadecahydro-1H,5H,14H,19H-pyrido[2,1-i]dipyrrolo[2,1-c:2′,1′-l][1]oxa[4,7,10,13]tetraazacyclohexadecin-20-yl)-2-(3-(4-(dimethylamino)phenyl)ureido)-3-phenylpropanamide]
[8]
  IC50: 91.3 ± 12.7 µM
[1]; [13]
  MIC: 0.78 µM (≈ 0.614 µg/mL)
[2]; [14]
  MIC: 0.78 µM (≈ 0.614 µg/mL)
[3]
  MIC: 6.25 µM (≈ 4.92 µg/mL)
[4]; [15]
  MIC: 1.56 µM (≈ 1.23 µg/mL)
[5]
  MIC: 0.39 µM (≈ 0.307 µg/mL)
[9]; [16]
  MIC: 0.78 µM (≈ 0.614 µg/mL)
E. coli K12ΔtolC
  Minimal Inhibitory Concentrations E. coli K12ΔtolC: 50 µM

## COc1ccc(NC(=O)N[C@@H](Cc2ccccc2)C(=O)N[C@H]2COC(=O)[C@@H]3C[C@@H](C)CN3C(=O)[C@H](C)NC(=O)[C@@H]3CCCCN3C(=O)[C@@H]3CCCN3C2=O)cc1 [Compound 6, (S)—N-((2R,6S,8aS,14aS,20S,23aS)-2,6-dimethyl-5,8,14,19,23-pentaoxooctadecahydro-1H,5H,14H,19H-pyrido[2,1-i]dipyrrolo[2,1-c:2′,1′-l][1]oxa[4,7,10,13]tetraazacyclohexadecin-20-yl)-2-(3-(4-Methoxyphenyl)ureido)-3-phenylpropanamide]
[8]
  IC50: > 100 µM
[1]; [13]
  MIC: 1.56 µM (≈ 1.21 µg/mL)
[2]; [14]
  MIC: 0.78 µM (≈ 0.604 µg/mL)
[3]
  MIC: 3.13 µM (≈ 2.42 µg/mL)
[4]; [15]
  MIC: 3.13 µM (≈ 2.42 µg/mL)
[5]
  MIC: 0.2 µM (≈ 0.155 µg/mL)
[9]; [16]
  MIC: 0.39 µM (≈ 0.302 µg/mL)
E. coli K12ΔtolC
  Minimal Inhibitory Concentrations E. coli K12ΔtolC: 50 µM

## C[C@@H]1C[C@H]2C(=O)OC[C@H](NC(=O)[C@H](Cc3ccccc3)NC(=O)Nc3ccccc3Cl)C(=O)N3CCC[C@H]3C(=O)N3CCCC[C@H]3C(=O)N[C@@H](C)C(=O)N2C1 [Compound 7, (S)-2-(3-(2-chlorophenyl)ureido)-N-((2R,6S,8aS,14aS,20S,23aS)-2,6-dimethyl-5,8,14,19,23-pentaoxooctadecahydro-1H,5H,14H,19H-pyrido[2,1-i]dipyrrolo[2,1-c:2′,1′-l][1]oxa[4,7,10,13]tetraazacyclohexadecin-20-yl)-3-phenylpropanamide]
[8]
  IC50: > 100 µM
[1]; [13]
  MIC: 6.25 µM (≈ 4.86 µg/mL)
[2]; [14]
  MIC: 3.13 µM (≈ 2.44 µg/mL)
[3]
  MIC: 12.5 µM (≈ 9.73 µg/mL)
[4]; [15]
  MIC: 12.5 µM (≈ 9.73 µg/mL)
[5]
  MIC: 0.78 µM (≈ 0.607 µg/mL)
[9]; [16]
  MIC: 3.13 µM (≈ 2.44 µg/mL)
E. coli K12ΔtolC
  Minimal Inhibitory Concentrations E. coli K12ΔtolC: 200 µM

## COc1cccc(NC(=O)N[C@@H](Cc2ccccc2)C(=O)N[C@H]2COC(=O)[C@@H]3C[C@@H](C)CN3C(=O)[C@H](C)NC(=O)[C@@H]3CCCCN3C(=O)[C@@H]3CCCN3C2=O)c1 [Compound 8, (S)—N-((2R,6S,8aS,14aS,20S,23aS)-2,6-dimethyl-5,8,14,19,23-pentaoxooctadecahydro-1H,5H,14H,19H-pyrido[2,1-i]dipyrrolo[2,1-c:2′,1′-l][1]oxa[4,7,10,13]tetraazacyclohexadecin-20-yl)-2-(3-(3-methoxyphenyl)ureido)-3-phenylpropanamide]
[1]; [10]
  MIC: 3.13 µM (≈ 2.42 µg/mL)
[2]; [11]
  MIC: 1.56 µM (≈ 1.21 µg/mL)
[3]
  MIC: 3.13 µM (≈ 2.42 µg/mL)
[4]; [12]
  MIC: 3.13 µM (≈ 2.42 µg/mL)
[5]
  MIC: 0.39 µM (≈ 0.302 µg/mL)
[9]; [17]
  MIC: 0.78 µM (≈ 0.604 µg/mL)
E. coli K12ΔtolC
  Minimal Inhibitory Concentrations E. coli K12ΔtolC: 200 µM

## NC[C@H]1O[C@H](O[C@H]2[C@H](O)[C@@H](O[C@H]3O[C@H](CO)[C@@H](O)[C@H](N)[C@H]3O)[C@H](N)C[C@@H]2N)[C@H](O)[C@@H](O)[C@@H]1O [Kanamycin, kanamycin, reference compound]
[1]; [10]
  MIC: 0.1 µM (≈ 0.0485 µg/mL)
[2]; [11]
  MIC: 25 µM (≈ 12.1 µg/mL)
[3]
  MIC: 1.56 µM (≈ 0.756 µg/mL)
[4]; [12]
  MIC: 50 µM (≈ 24.2 µg/mL)
[5]
  MIC: 25 µM (≈ 12.1 µg/mL)
[9]; [17]
  MIC: 12.5 µM (≈ 6.06 µg/mL)
E. coli K12ΔtolC
  Minimal Inhibitory Concentrations E. coli K12ΔtolC: 0.4 µM
